Data on 2 molecules can be found in patent US8236778B2, “Synergistic 5′-methylthioadenosine combinations” (Proyecto de Biomedicina Cima, S.L., priority 2008, dated 2012).

Data set [1] deals with Chronic-Relapsing EAE (RR-EAE). The settings on record: model of Multiple Sclerosis; cited from earlier work.
For data set [2] the following is noted: wide range of doses; cited from earlier work.
In data set [3] the test system is acute Experimental Autoimmune Encephalomyelitis (EAE). To be noted: model of Multiple Sclerosis; cited from earlier work.
Data set [4] relates to acute EAE model. As to the kind of experiment: EAE disease severity score in MS animal model (acute EAE model, rMOG35-55 immunization). In kind it is in vivo. The settings on record: female C57/bl6 mice, daily i.p. treatment starting after immunization, followed to day 31; (27.84 mg/kg), GA 0.1 mg/mouse/day; n=5 per group.
The test system of data set [5] is MS relapses. The settings on record: current GA therapy; cited from earlier work.

`CSC[C@H]1O[C@@H](n2cnc3c(N)ncnc32)[C@H](O)[C@@H]1O` [MTA, 5′-methylthioadenosine]: the “effect on Chronic-Relapsing EAE” value in data set [1] is “ameliorates”. Moreover, the side effects entry in data set [2] is “without side effects”. The “effect on acute EAE” value in data set [3] is on record as “capable of preventing”. The “course / severity of the disease (EAE)” value in data set [4] is “course of the disease with intermediate intensity”.
Take “L-glutamic acid polymer with L-alanine, L-lysine and L-tyrosine, acetate (salt) [GA, reference compound]”: the “efficacy in preventing new relapses in MS” value in data set [5] is “not more than 25%”. For the same molecule, in data set [4], the “course / severity of the disease (EAE)” value was “course of the disease with intermediate intensity”.
